The values that follow are results of earlier work, collected in US20250387447A1, “Herbal composition for use in the improvement of physical and mental health recovery and maintenance, including the improvement of cognitive function or prevention of cognitive decline” (Conka Elite Ltd, priority 2022, published 2025).

This data set has as its system neurons.

On to `COc1cc(/C=C/C(=O)CC(=O)/C=C/c2ccc(O)c(OC)c2)ccc1O` [curcumin], for which the “neuron death caused by oxygen-glucose deprivation” value is “protects neurons from death”. Further, the expression of thioredoxin entry (Nrf2 pathway) is listed as “activate the expression of thioredoxin”.
